Reference: US11110117B2, “Skin preparation composition for external use containing complex hyaluronic acid” (J2KBIO CO., LTD., priority 2019, dated 2021)

Assays:
[1] = Antioxidant effect (active oxygen scavenging) by NBT method; assay type: biochemical; settings: sample 0.1 weight %, absorbance 560 nm
Description: In order to measure the antioxidant effect, active oxygen generated by xanthine and xanthine oxidase was measured by the NBT method, and an effect of removing active oxygen by a test substance, that is, the active oxygen scavenging effect was evaluated. Active oxygen was generated by xanthine and xanthine oxidase, and this active oxygen reacts with nitro blue tetrazolium (NBT). […] 0.1 ml of a xanthine oxidase solution was added and quickly stirred, culture at 25° C. for 20 minutes was started, 0.1 ml of a 6 mM CuCl2 solution was added to stop the reaction, and an absorbance St at 560 nm was measured. In a blank test, the same operation was performed in the same manner except that distilled water was used instead of the sample solution, and an absorbance Bt was measured. In a blank of the sample solution, the same operation was performed in the same manner except that the distilled water was used instead of xanthine oxidase, and an absorbance […] was measured. Inhibition rate (%)=[1−(St−So)/(Bt−Bo)]×100 <Equation 1> St: Absorbance at 560 nm after enzyme reaction of sample solution Bt: Absorbance at 560 nm after enzyme reaction of blank test solution So: Absorbance at 560 nm before reaction of sample solution in the absence of enzyme Bo: Absorbance at 560 nm before reaction of blank test solution in the absence of enzyme

[2] = Free radical scavenging activity by DPPH method; assay type: biochemical; settings: sample 0.1 weight %, 30 minutes at 37° C.
Description: Each sample was prepared at the concentration of 0.1% to measure DPPH free radical scavenging activity. Each sample at the above concentration was introduced to a 96-well plate, and DPPH produced with a 100 uM methanol solution was added thereto, such that the total volume of the solution became 200 μl. The resultant was left for 30 minutes at 37° C., and an absorbance was measured at 560 nm. The free radical scavenging activity (%) was calculated by Equation 2 below. Free radical scavenging activity (%)=100−(B/A)×100 <Equation 2> A: Absorbance of control wells in the absence of sample treatment B: Absorbance of experimental wells with sample treatment

[3] = tested on: Human keratinocytes HaCaT cell lines; assay: Intracellular active oxygen scavenging effect after UVB (DCFH-DA fluorescence); assay type: cell-based; settings: sample 0.01 weight %, UVB 20 mJ/cm^2
Description: Cell lines used in the experiment were the Human keratinocytes HaCaT cell lines distributed from Dr. Fusenig in German Cancer Research Center. […] Subsequently, 100 μl of HCSS treated for each concentration was added, and then the fluorescence of dichlorofluorescein (DCF) oxidized with active oxygen in the early stage was measured with a fluorescent plate reader (Ex; 485 nm, and Em; 530 nm). Subsequently, irradiation with UVB (20 mJ/cm^2) was performed, and the fluorescence after the sample treatment was measured by a fluorescent plate reader (Ex; 485 nm, and Em; 530 nm).

MMP-1 = MMP-1 expression inhibition after UVA irradiation (ELISA); assay type: cell-based; settings: retinol, concentration not given; human dermal fibroblasts, UVA 6.3 J/cm^2, 24 hours
Description: Human dermal fibroblasts were irradiated with UVA at an energy of 6.3 J/cm^2 by using a UV chamber. With respect to UV irradiation dose and culture time, conditions for maximizing an MMP expression amount in fibroblasts were established by preliminary experiments. A negative control was wrapped in silver foil and kept for the same period of time in the UVA environment. A UVA emission amount was measured by using a UV radiometer. The cells during the UVA irradiation were the same medium inoculated before without change and were exchanged with a medium containing the samples after UVA irradiation. The medium was collected after culturing for 24 hours, and 96 wells were coated with the medium. A primary antibody (MMP-1 (Ab-5) monoclonal antibody) was treated and reacted at 37° C. for 60 minutes. After an anti-mouse IgG (whole mouse, alkaline phosphatase conjugated), which was a secondary antibody, was reacted again for about 60 minutes, the alkaline phosphatase substrate solution (1 mg/ml p-nitrophenyl phosphate in diethanolamine buffer solution) was reacted at room temperature for 30 minutes, and then an absorbance was measured at 405 nm with a plate reader. As a control, a medium to which the sample was not added was used.

type 1 procollagen = assay: Type 1 procollagen biosynthesis promoting effect (procollagen type-1 C-peptide EIA); assay type: cell-based; settings: sample 0.001 weight %; human dermal fibroblasts, 24 hours
Description: Human dermal fibroblasts isolated from neonatal foreskin tissues were distributed from Modern Tissue Technology (MTT, Korea), and a 10% fetal bovine serum (FBS) was added to a medium of DMEM/F-12 (3:1) and cultured at the concentration of 1×10^4 cell/cm^2. At about 70% to 80% confluence, the cells were inoculated at a ratio of 1:3 and subcultured, and the cells subcultured for the third to fourth generations were used in the experiment.
For experiments to measure the amount of procollagen, the fibroblasts were cultured by more than 90% in a 48-well plate, and then each of […], and an amount of collagen isolated in the medium after 24 hours was measured by using a procollagen type-1 C-peptide EIA kit (MK101, Takara, Japan).

Compound: Cc1cc(C(C)(C)C)c(O)c(C(C)(C)C)c1 [BHT, butylated hydroxytoluene]
- Antioxidant effect (active oxygen scavenging) (%) [1]: 87%
- Free radical scavenging activity (%) [2]: 81%

Compound: O=C(O[C@@H]1Cc2c(O)cc(O)cc2O[C@@H]1c1cc(O)c(O)c(O)c1)c1cc(O)c(O)c(O)c1 [EGCG]
- Active oxygen scavenging effect (%) [3]: 45%

Compound: CC1=C(/C=C/C(C)=C/C=C/C(C)=C/CO)C(C)(C)CCC1 [Retinol, retinol]
- MMP-1 expression inhibition rate (%) (MMP-1): 38%

Compound: TGF-β
- Procollagen biosynthesis promoting effect (%) (type 1 procollagen): 35%
